We go through 18 compounds from US20240287047A1, “PESTICIDALLY ACTIVE DIAZINE-AMIDE COMPOUNDS” (SYNGENTA CROP PROTECTION AG, priority 2021, published 2024).

SMILES strings stand for the structures.

What all share (format): in vivo
The subject of assay [1] is Plutella xylostella. Nature of the assay: Example B4: Plutella xylostella (diamond back moth), artificial diet, eggs. Conditions: for mortality at 50 ppm: Concentration 50 ppm, Plutella xylostella (Example B4); for percent control (mortality or growth inhibition) at 200 ppm: Plutella xylostella, 192 h, application rate of 200 ppm, 8 days after infestation, read-out: control in at least one of the two categories (mortality or growth inhibition). The protocol:
24-well microtiter plates with artificial diet were treated with aqueous test solutions prepared from 10′000 ppm DMSO stock solutions by pipetting. After drying, Plutella eggs were pipetted through a plastic stencil onto a gel blotting paper and the plate was closed with it. The samples were assessed for mortality and growth inhibition in comparison to untreated samples 8 days after infestation.

Assay [2] relates to Chilo suppressalis. Nature of the assay: Example B1: Chilo suppressalis (striped rice stemborer), artificial diet, L2 larvae. Conditions: 144 h, application rate of 200 ppm, 6 days after infestation, read-out: control in at least one of the three categories (mortality, anti-feedant effect, or growth inhibition). On the procedure: 24-well microtiter plates with artificial diet were treated with aqueous test solutions prepared from 10,000 ppm DMSO stock solutions by pipetting. After drying, the plates were infested with L2 larvae (6-8 per well). The samples were assessed for mortality, anti-feeding effect, and growth inhibition in comparison to untreated samples 6 days after infestation. Control of Chilo suppressalis by a test sample is given when at least one of the categories mortality, anti-feedant effect, and growth inhibition is higher than the untreated sample.

Assay [3] has as its system Spodoptera littoralis. As to the kind of experiment: Example B5: Spodoptera littoralis (Egyptian cotton leaf worm), cotton leaf discs, L1 larvae. Conditions: foliar, 72 h, application rate of 200 ppm, 3 days after infestation, read-out: control in at least one of the three categories (mortality, anti-feedant effect, or growth inhibition). The protocol:
Cotton leaf discs were placed onto agar in 24-well microtiter plates and sprayed with aqueous test solutions prepared from 10,000 ppm DMSO stock solutions. After drying the leaf discs were infested with five L1 larvae. The samples were assessed for mortality, anti-feeding effect, and growth inhibition in comparison to untreated samples 3 days after infestation. Control of Spodoptera littoralis by a test sample is given when at least one of the categories mortality, anti-feedant effect, and growth inhibition is higher than the untreated sample.

Assay [4] deals with Diabrotica balteata. Nature of the assay: Example B2: Diabrotica balteata (corn root worm), maize sprouts, L2 larvae. Conditions: Diabrotica balteata, 96 h; application rate of 200 ppm; 4 days after infestation; read-out: control in at least one of the two categories (mortality or growth inhibition). The protocol:
Maize sprouts placed onto an agar layer in 24-well microtiter plates were treated with aqueous test solutions prepared from 10,000 ppm DMSO stock solutions by spraying. After drying, the plates were infested with L2 larvae (6 to 10 per well). The samples were assessed for mortality and growth inhibition in comparison to untreated samples 4 days after infestation.

Turning to `CC(NC(=O)c1cc(Cl)cc(C(F)(F)F)c1)c1nccnc1-c1cnccn1` (stereo not shown) [Compound P6, 3-chloro-N-[1-(3-pyrazin-2-ylpyrazin-2-yl)ethyl]-5-(trifluoromethyl)benzamide], in assay [1], the mortality at 50 ppm is 100% and the percent control (mortality or growth inhibition) at 200 ppm was not below 80%. Further, in assay [2], the percent control (mortality, anti-feedant effect or growth inhibition) at 200 ppm was not below 80%. Besides, the percent control (mortality, anti-feedant effect or growth inhibition) at 200 ppm in assay [3] is not below 80%.
Take `CC(NC(=O)c1cc(C(F)(F)F)cc(S(C)(=O)=O)c1)c1nccnc1-c1cnc(C#N)cn1` (stereo not shown) [Compound P39, N-[1-[3-(5-cyanopyrazin-2-yl)pyrazin-2-yl]ethyl]-3-methylsulfonyl-5-(trifluoromethyl)benzamide]: in assay [1], the percent control (mortality or growth inhibition) at 200 ppm was not below 80%. Further, the percent control (mortality, anti-feedant effect or growth inhibition) at 200 ppm in assay [2] and in assay [3] was not below 80% throughout.
As to `CC(NC(=O)c1cc(Cl)cc(I)c1)c1nccnc1-c1cnccn1` (stereo not shown) [Compound P13, 3-chloro-5-iodo-N-[1-(3-pyrazin-2-ylpyrazin-2-yl)ethyl]benzamide], the percent control (mortality or growth inhibition) at 200 ppm in assay [4] and in assay [1] was not below 80% in each case. In addition, the percent control (mortality, anti-feedant effect or growth inhibition) at 200 ppm in assay [2] and in assay [3] was not below 80% each time.
As to `CC(NC(=O)c1cc(C(F)(F)F)cc(C(F)(F)F)c1)c1nccnc1-c1cnccn1` (stereo not shown) [Compound P1, N-[1-(3-pyrazin-2-ylpyrazin-2-yl)ethyl]-3,5-bis (trifluoromethyl)benzamide], the percent control (mortality or growth inhibition) at 200 ppm in assay [4] and in assay [1] was not below 80% throughout. The percent control (mortality, anti-feedant effect or growth inhibition) at 200 ppm in assay [2] and in assay [3] was not below 80% each time.
With `C[C@H](NC(=O)c1cc(C(F)F)cc(C(F)(F)F)c1)c1nccnc1-c1cnccn1` [Compound E8, 3-(difluoromethyl)-N-[(1S)-1-(3-pyrazin-2-ylpyrazin-2-yl)ethyl]-5-(trifluoromethyl)benzamide], the percent control (mortality or growth inhibition) at 200 ppm in assay [4] and in assay [1] was not below 80% throughout. Further, the percent control (mortality, anti-feedant effect or growth inhibition) at 200 ppm in assay [2] and in assay [3] was not below 80% in each case.
`C[C@H](NC(=O)c1cc(I)cc(C(F)(F)F)c1)c1nccnc1-c1cnccn1` [Compound E4, 3-iodo-N-[(1S)-1-(3-pyrazin-2-ylpyrazin-2-yl)ethyl]-5-(trifluoromethyl)benzamide]: the percent control (mortality or growth inhibition) at 200 ppm in assay [4] and in assay [1] was not below 80% in each case. Also, the percent control (mortality, anti-feedant effect or growth inhibition) at 200 ppm in assay [2] and in assay [3] was not below 80% each time.
Consider `CC(NC(=O)c1cc(C2CC2)nc(C(F)(F)F)c1)c1nccnc1-c1cnccn1` (stereo not shown) [Compound P11, 2-cyclopropyl-N-[1-(3-pyrazin-2-ylpyrazin-2-yl)ethyl]-6-(trifluoromethyl)pyridine-4-carboxamide], for which the percent control (mortality or growth inhibition) at 200 ppm in assay [4] and in assay [1] was not below 80% throughout. Moreover, the percent control (mortality, anti-feedant effect or growth inhibition) at 200 ppm in assay [2] and in assay [3] was not below 80% in each case.
As to `CC(NC(=O)c1cc(C2CC2)cc(C(F)(F)F)c1)c1nccnc1-c1cnccn1` (stereo not shown) [Compound P19, 3-cyclopropyl-N-[1-(3-pyrazin-2-ylpyrazin-2-yl)ethyl]-5-(trifluoromethyl)benzamide], the percent control (mortality or growth inhibition) at 200 ppm in assay [4] and in assay [1] was not below 80% throughout. This compound returned a mortality at 50 ppm in assay [1] of 100%. Further, in assay [2], the percent control (mortality, anti-feedant effect or growth inhibition) at 200 ppm is not below 80%.
Take `CC(NC(=O)c1cc(C(F)(F)F)cc(C(C)(C)C#N)c1)c1nccnc1-c1cnccn1` (stereo not shown) [Compound P5, 3-(1-cyano-1-methyl-ethyl)-N-[1-(3-pyrazin-2-ylpyrazin-2-yl)ethyl]-5-(trifluoromethyl)benzamide]: the percent control (mortality or growth inhibition) at 200 ppm in assay [4] and in assay [1] was not below 80% throughout. In addition, the percent control (mortality, anti-feedant effect or growth inhibition) at 200 ppm in assay [2] and in assay [3] was not below 80% each time.
In the case of `CC(NC(=O)c1cc(Br)nc(C2(C#N)CC2)c1)c1nccnc1-c1cnccn1` (stereo not shown) [Compound P3, 2-bromo-6-(1-cyanocyclopropyl)-N-[1-(3-pyrazin-2-ylpyrazin-2-yl)ethyl]pyridine-4-carboxamide], the percent control (mortality or growth inhibition) at 200 ppm in assay [4] and in assay [1] was not below 80% throughout. For the same compound, the percent control (mortality, anti-feedant effect or growth inhibition) at 200 ppm in assay [2] and in assay [3] was not below 80% each time.
In the case of `CC(c1nccnc1-c1cnccn1)N(C)C(=O)c1cc(Cl)cc(C(F)(F)F)c1` (stereo not shown) [Compound P30, 3-chloro-N-methyl-N-[1-(3-pyrazin-2-ylpyrazin-2-yl)ethyl]-5-(trifluoromethyl)benzamide], the percent control (mortality or growth inhibition) at 200 ppm in assay [4] and in assay [1] was not below 80% each time. Also, the percent control (mortality, anti-feedant effect or growth inhibition) at 200 ppm in assay [2] was not below 80%.
`CC(NC(=O)c1cc(C(F)(F)F)cc(C(C)(C)C#N)c1)c1nccnc1-c1cnc(Cl)cn1` (stereo not shown) [Compound P37, N-[1-[3-(5-chloropyrazin-2-yl)pyrazin-2-yl]ethyl]-3-(1-cyano-1-methyl-ethyl)-5-(trifluoromethyl)benzamide]: the percent control (mortality or growth inhibition) at 200 ppm in assay [4] and in assay [1] was not below 80% in each case. Further, the percent control (mortality, anti-feedant effect or growth inhibition) at 200 ppm in assay [2] and in assay [3] was not below 80% throughout.
Consider `CC(NC(=O)c1cc(C(F)(F)F)cc(S(C)(=O)=O)c1)c1nccnc1-c1cnc(Cl)cn1` (stereo not shown) [Compound P35, N-[1-[3-(5-chloropyrazin-2-yl)pyrazin-2-yl]ethyl]-3-methylsulfonyl-5-(trifluoromethyl)benzamide], for which the percent control (mortality or growth inhibition) at 200 ppm in assay [4] and in assay [1] was not below 80% in each case. Further, the percent control (mortality, anti-feedant effect or growth inhibition) at 200 ppm in assay [2] and in assay [3] was not below 80% in each case.
Consider `CC(NC(=O)c1cc(Cl)cc(OC(F)(F)F)c1)c1nccnc1-c1cnccn1` (stereo not shown) [Compound P9, 3-chloro-N-[1-(3-pyrazin-2-ylpyrazin-2-yl)ethyl]-5-(trifluoromethoxy)benzamide], for which the percent control (mortality or growth inhibition) at 200 ppm in assay [4] and in assay [1] was not below 80% in each case. For the same compound, the percent control (mortality, anti-feedant effect or growth inhibition) at 200 ppm in assay [2] is not below 80%.
In the case of `CC(NC(=O)c1cc(Cl)cc(S(=O)(=O)C(F)(F)F)c1)c1nccnc1-c1cnccn1` (stereo not shown) [Compound P33, 3-chloro-N-[1-(3-pyrazin-2-ylpyrazin-2-yl)ethyl]-5-(trifluoromethylsulfonyl)benzamide], in assay [1], the percent control (mortality or growth inhibition) at 200 ppm is not below 80%. In addition, the percent control (mortality, anti-feedant effect or growth inhibition) at 200 ppm in assay [2] is not below 80%.
On to `CC(NC(=O)c1cc(I)cc(C(F)(F)F)c1)c1nccnc1-c1cnc(Cl)cn1` (stereo not shown) [Compound P34, N-[1-[3-(5-chloropyrazin-2-yl)pyrazin-2-yl]ethyl]-3-iodo-5-(trifluoromethyl)benzamide], for which the percent control (mortality or growth inhibition) at 200 ppm in assay [4] and in assay [1] was not below 80% throughout. Further, the percent control (mortality, anti-feedant effect or growth inhibition) at 200 ppm in assay [2] and in assay [3] was not below 80% each time.
As to `CC(NC(=O)c1cc(C(F)(F)F)cc(S(=O)(=O)C(F)(F)F)c1)c1nccnc1-c1cnccn1` (stereo not shown) [Compound P22, N-[1-(3-pyrazin-2-ylpyrazin-2-yl)ethyl]-3-(trifluoromethyl)-5-(trifluoromethylsulfonyl)benzamide], in assay [1], the percent control (mortality or growth inhibition) at 200 ppm was not below 80%. The percent control (mortality, anti-feedant effect or growth inhibition) at 200 ppm in assay [2] was not below 80%.
For `CC(NC(=O)c1cc(I)cc(C(F)(F)F)c1)c1nccnc1-c1cnccn1` (stereo not shown) [Compound P23, 3-iodo-N-[1-(3-pyrazin-2-ylpyrazin-2-yl)ethyl]-5-(trifluoromethyl)benzamide], the percent control (mortality or growth inhibition) at 200 ppm in assay [4] and in assay [1] was not below 80% throughout. Besides, the percent control (mortality, anti-feedant effect or growth inhibition) at 200 ppm in assay [3] was not below 80%.

For orientation: mortality means the share of the test organisms that died. Read a high mortality as a strong lethal effect.
